Laboratory results from PubChem BioAssay AID330 (DTP/NCI, 2004).
Where “and” joins values, the source holds several entries; their conditions need not be identical. Equal values may be shown once. Toxic doses and inconclusive results are not listed. The calls were made as follows: active = survival T/C of 150% or more; inactive = T/C below 125% in these data.

Tested on: P388 leukemia ip, CD2F1 mice, survival T/C
Test: NCI In Vivo Anticancer Drug Screen. Data for tumor model P388 Leukemia (intraperitoneal) in CD2F1 (CDF1) mice
Conditions: endpoint: median survival time, higher = longer survival
Summary of the method: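 Mice carrying the transplanted tumor received test compound or vehicle. Survival was recorded in each group, and the value is the treated-group measurement divided by that of the vehicle-treated control group.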

[1] = dose: 100.0 mg/kg/injection, schedule: Q04DX003 (ip), vehicle: saline
[2] = dose: 1.56 mg/kg/injection, schedule: Q01DX005 (ip), vehicle: Klucel (hydroxypropylcellulose) (HPC)
[3] = dose: 3.12 mg/kg/injection, schedule: Q01DX005 (ip), vehicle: Klucel (hydroxypropylcellulose) (HPC)
[4] = dose: 50.0 mg/kg/injection, schedule: Q01DX009 (ip), vehicle: Klucel (hydroxypropylcellulose) (HPC)
[5] = dose: 100.0 mg/kg/injection, schedule: Q01DX009 (ip), vehicle: Klucel (hydroxypropylcellulose) (HPC)
[6] = dose: 200.0 mg/kg/injection, schedule: Q01DX009 (ip), vehicle: Klucel (hydroxypropylcellulose) (HPC)
[7] = dose: 60.0 mg/kg/injection, schedule: Q01DX005 (ip), vehicle: saline
[8] = dose: 120.0 mg/kg/injection, schedule: Q01DX005 (ip), vehicle: saline
[9] = dose: 240.0 mg/kg/injection, schedule: Q01DX005 (ip), vehicle: saline
[10] = dose: 50.0 mg/kg/injection, schedule: Q04DX003 (ip), vehicle: saline with Tween-80
[11] = dose: 100.0 mg/kg/injection, schedule: Q04DX002 (ip), vehicle: saline with Tween-80
[12] = dose: 60.0 mg/kg/injection, schedule: Q01DX005 (ip), vehicle: saline with Tween-80
[13] = dose: 120.0 mg/kg/injection, schedule: Q01DX005 (ip), vehicle: saline with Tween-80
[14] = dose: 240.0 mg/kg/injection, schedule: Q01DX005 (ip), vehicle: saline with Tween-80
[15] = dose: 25.0 mg/kg/injection, schedule: Q04DX003 (ip), vehicle: saline
[16] = dose: 50.0 mg/kg/injection, schedule: Q04DX003 (ip), vehicle: saline
[17] = dose: 50.0 mg/kg/injection, schedule: Q01DX009 (ip), vehicle: saline

Measured: T/C

O=C(O)c1c[n+]([O-])ccc1OCc1ccccc1
inactive: [1] 100 % of control | dose: 200.0 mg/kg/injection, schedule: Q04DX003 (ip), vehicle: saline 98 % of control | dose: 400.0 mg/kg/injection, schedule: Q04DX003 (ip), vehicle: saline 94 % of control

NC(CCS(=O)(=O)NCCCl)C(=O)O (stereo unspecified)
inactive: dose: 12.5 mg/kg/injection, schedule: Q01DX009 (ip), vehicle: water 103 % of control | dose: 25.0 mg/kg/injection, schedule: Q01DX009 (ip), vehicle: water 105 % of control | dose: 50.0 mg/kg/injection, schedule: Q01DX009 (ip), vehicle: water 104 % of control | dose: 100.0 mg/kg/injection, schedule: Q01DX009 (ip), vehicle: water 102 % of control | dose: 200.0 mg/kg/injection, schedule: Q01DX009 (ip), vehicle: water 105 % of control

c1ccc(-c2nc3ccccc3n2CCc2ccncc2)nc1
inactive: dose: 50.0 mg/kg/injection, schedule: Q01DX005 (ip), vehicle: Klucel (hydroxypropylcellulose) (HPC) 107 % of control | dose: 100.0 mg/kg/injection, schedule: Q01DX005 (ip), vehicle: Klucel (hydroxypropylcellulose) (HPC) 104 % of control

O=P(CCCCP(=O)(c1ccccc1)c1ccccc1)(c1ccccc1)c1ccccc1.[Cl][Sn]([Cl])([c]1ccccc1)[c]1ccccc1
inactive: [2] 114 % of control | [3] 114 % of control | dose: 12.5 mg/kg/injection, schedule: Q01DX005 (ip), vehicle: Klucel (hydroxypropylcellulose) (HPC) 115 % of control

C/C(=C\Cc1cc(O)c(C)cc1O)CC/C=C(\C)Cc1cc(C)co1
inactive: dose: 4.0 mg/kg/injection, schedule: Q01DX009 (ip), vehicle: Klucel (hydroxypropylcellulose) (HPC) 93 % of control | dose: 8.0 mg/kg/injection, schedule: Q01DX009 (ip), vehicle: Klucel (hydroxypropylcellulose) (HPC) 101 % of control | dose: 16.0 mg/kg/injection, schedule: Q01DX009 (ip), vehicle: Klucel (hydroxypropylcellulose) (HPC) 101 % of control | dose: 32.0 mg/kg/injection, schedule: Q01DX009 (ip), vehicle: Klucel (hydroxypropylcellulose) (HPC) 108 % of control

CNC(=S)/C(C(C)=O)=C(\C)Nc1ccccc1
inactive: [4] 101 % of control | [5] 106 % of control | [6] 106 % of control

S=P([S][Sn]([S]P(=S)(c1ccccc1)c1ccccc1)([c]1ccccc1)[c]1ccccc1)(c1ccccc1)c1ccccc1
inactive: [2] 108 % of control | [3] 117 % of control

O=C1CC2OC3C(C2O1)N(C(=O)OCc1ccccc1)C[C@H]3O (stereo partly specified)
inactive: [7] 106 % of control | [8] 98 % of control | [9] 105 % of control

CC(=N\O)/C(=N/O)c1ccccc1
inactive: [10] 106 % of control | dose: 100.0 mg/kg/injection, schedule: Q04DX003 (ip), vehicle: saline with Tween-80 98 % of control | dose: 200.0 mg/kg/injection, schedule: Q04DX003 (ip), vehicle: saline with Tween-80 98 % of control | dose: 400.0 mg/kg/injection, schedule: Q04DX003 (ip), vehicle: saline with Tween-80 104 % of control

CC(N)CC(N)CC(=O)O (stereo unspecified)
inactive: [7] 100 % of control and 99 % of control | [8] 102 % of control and 100 % of control | [9] 90 % of control and 91 % of control

CSCCC(NC(=O)CNC(=O)OCc1ccccc1)C(=O)O (stereo unspecified)
inactive: dose: 25.0 mg/kg/injection, schedule: Q01DX009 (ip), vehicle: Klucel (hydroxypropylcellulose) (HPC) 94 % of control | [4] 95 % of control | [5] 100 % of control | [6] 93 % of control | dose: 400.0 mg/kg/injection, schedule: Q01DX009 (ip), vehicle: Klucel (hydroxypropylcellulose) (HPC) 87 % of control

COc1ccc2ncc(C)c(COC(C)=O)c2c1
inactive: [11] 102 % of control | dose: 200.0 mg/kg/injection, schedule: Q04DX002 (ip), vehicle: saline with Tween-80 93 % of control | dose: 400.0 mg/kg/injection, schedule: Q04DX002 (ip), vehicle: saline with Tween-80 97 % of control

C=CCc1ccccc1C1=[N+](C)C(C)(C)CO1
inactive: dose: 25.0 mg/kg/injection, schedule: Q04DX002 (ip), vehicle: saline with Tween-80 100 % of control | dose: 50.0 mg/kg/injection, schedule: Q04DX002 (ip), vehicle: saline with Tween-80 102 % of control | [11] 97 % of control

Clc1ncn[nH]1
inactive: dose: 100.0 mg/kg/injection, schedule: Q01DX001 (ip), vehicle: Klucel (hydroxypropylcellulose) (HPC) 99 % of control | dose: 200.0 mg/kg/injection, schedule: Q01DX001 (ip), vehicle: Klucel (hydroxypropylcellulose) (HPC) 106 % of control | dose: 400.0 mg/kg/injection, schedule: Q01DX001 (ip), vehicle: Klucel (hydroxypropylcellulose) (HPC) 122 % of control

C=C1C(=O)OC2C3CCC2C1C3 (stereo unspecified)
inactive: dose: 12.5 mg/kg/injection, schedule: Q04DX003 (ip), vehicle: saline with Tween-80 101 % of control | dose: 25.0 mg/kg/injection, schedule: Q04DX003 (ip), vehicle: saline with Tween-80 115 % of control | [10] 100 % of control

CCCCCCCCCCCCCCOC(=O)C(N)Cc1ccc(O)cc1 (stereo unspecified)
inactive: dose: 60.0 mg/kg/injection, schedule: Q01DX005 (ip), vehicle: Klucel (hydroxypropylcellulose) (HPC) 100 % of control | dose: 120.0 mg/kg/injection, schedule: Q01DX005 (ip), vehicle: Klucel (hydroxypropylcellulose) (HPC) 100 % of control | dose: 240.0 mg/kg/injection, schedule: Q01DX005 (ip), vehicle: Klucel (hydroxypropylcellulose) (HPC) 100 % of control

CC1=C(c2ccco2)C(c2ccco2)OC1=O (stereo unspecified)
inactive: [12] 102 % of control | [13] 103 % of control | [14] 103 % of control

OCCN1CCN(c2c3ccccc3nc3ccccc23)CC1
inactive: [15] 100 % of control | [16] 100 % of control

CCCCCC(CN(C)C)C(=O)/C=C/c1ccc2c(c1)OCO2 (stereo unspecified)
inactive: dose: 50.0 mg/kg/injection, schedule: Q01DX009 (ip), vehicle: saline with Tween-80 123 % of control | dose: 100.0 mg/kg/injection, schedule: Q01DX009 (ip), vehicle: saline with Tween-80 109 % of control

CCc1c(C#N)c(S)[nH]c(=S)c1C#N
inactive: dose: 12.5 mg/kg/injection, schedule: Q01DX009 (ip), vehicle: saline 90 % of control | dose: 25.0 mg/kg/injection, schedule: Q01DX009 (ip), vehicle: saline 100 % of control | [17] 98 % of control and 102 % of control

CCC(CN)C1=Nc2ccccc2C1 (stereo unspecified)
inactive: [15] 101 % of control | [16] 96 % of control | [1] 103 % of control and 111 % of control

C=C1CC2(CC(C)CCC2C(=C)C)OC1=O (stereo unspecified)
inactive: dose: 100.0 mg/kg/injection, schedule: Q01DX001 (ip), vehicle: saline 101 % of control | dose: 200.0 mg/kg/injection, schedule: Q01DX001 (ip), vehicle: saline 102 % of control | dose: 400.0 mg/kg/injection, schedule: Q01DX001 (ip), vehicle: saline 99 % of control

N#CCC1(C#N)CCC(OCc2ccccc2)CC1 (stereo unspecified)
inactive: [17] 100 % of control and 99 % of control | dose: 100.0 mg/kg/injection, schedule: Q01DX009 (ip), vehicle: saline 100 % of control | dose: 200.0 mg/kg/injection, schedule: Q01DX009 (ip), vehicle: saline 102 % of control and 101 % of control

Nc1nccc(CC(O)(c2ccccc2)c2ccccc2)n1
inactive: dose: 15.0 mg/kg/injection, schedule: Q01DX005 (ip), vehicle: saline with Tween-80 102 % of control | dose: 30.0 mg/kg/injection, schedule: Q01DX005 (ip), vehicle: saline with Tween-80 102 % of control | [12] 99 % of control and 100 % of control | [13] 95 % of control | [14] 87 % of control
